According to publication PMC11408249, “Non-invasive in vivo imaging of changes in Collagen III turnover in myocardial fibrosis” (npj Imaging, 2024):
Marks after values point to notes of the source that are not given here. No end group written: not given here.

Columns and labels:
[1] = 20 MHz, 37 °C, cited from earlier work
Description: Table 1 Relaxivities of monomeric and tetrameric probes bearing CBP1 and CBP2 peptide moieties, in PBS and 0.6 mM human serum albumin (HAS) at 20 MHz and 37 °C | column: r1 mM (mM^−1 s^−1) / PBS; r1 mM (mM^−1 s^−1) / HSA 0.6 mM || To further characterise the molecular characteristics of these probes, the ^1H nuclear magnetic relaxation dispersion profiles (^1H-NMRD) of Gd-DOTAMA-CBP1, Gd-DOTAMA-CBP2 and [Gd-DOTAMA]4-CBP1 were acquired in phosphate buffer saline (PBS) and in 0.6 mM human serum albumin (HSA), at 25 and 37 °C (Supplementary Fig. 3a–c). The profiles obtained were characteristic of small-molecular weight (MW) complexes, even when in the presence of HSA. Table 1 summarises the relaxivity values at 20 MHz and 37 °C, for all probes and for Gadovist[45] a nonpeptide-based (non-targeted) clinically approved contr ...

[2] = target: T1, COL3 (Mus musculus, UniProt P08121); experiment: Molecular CMR of COL3 in a murine model of myocardial infarction; format: in vivo, mice; conditions: control agents, i.v. 0.2 mmol/kg, 30 minutes post-injection, n = 2–3 per group
T1 construct: from tissue; host or cells: infarcted left-ventricular myocardium of female CD1 mice, in vivo
T1 sequence (P08121 155-1219 limits assumed): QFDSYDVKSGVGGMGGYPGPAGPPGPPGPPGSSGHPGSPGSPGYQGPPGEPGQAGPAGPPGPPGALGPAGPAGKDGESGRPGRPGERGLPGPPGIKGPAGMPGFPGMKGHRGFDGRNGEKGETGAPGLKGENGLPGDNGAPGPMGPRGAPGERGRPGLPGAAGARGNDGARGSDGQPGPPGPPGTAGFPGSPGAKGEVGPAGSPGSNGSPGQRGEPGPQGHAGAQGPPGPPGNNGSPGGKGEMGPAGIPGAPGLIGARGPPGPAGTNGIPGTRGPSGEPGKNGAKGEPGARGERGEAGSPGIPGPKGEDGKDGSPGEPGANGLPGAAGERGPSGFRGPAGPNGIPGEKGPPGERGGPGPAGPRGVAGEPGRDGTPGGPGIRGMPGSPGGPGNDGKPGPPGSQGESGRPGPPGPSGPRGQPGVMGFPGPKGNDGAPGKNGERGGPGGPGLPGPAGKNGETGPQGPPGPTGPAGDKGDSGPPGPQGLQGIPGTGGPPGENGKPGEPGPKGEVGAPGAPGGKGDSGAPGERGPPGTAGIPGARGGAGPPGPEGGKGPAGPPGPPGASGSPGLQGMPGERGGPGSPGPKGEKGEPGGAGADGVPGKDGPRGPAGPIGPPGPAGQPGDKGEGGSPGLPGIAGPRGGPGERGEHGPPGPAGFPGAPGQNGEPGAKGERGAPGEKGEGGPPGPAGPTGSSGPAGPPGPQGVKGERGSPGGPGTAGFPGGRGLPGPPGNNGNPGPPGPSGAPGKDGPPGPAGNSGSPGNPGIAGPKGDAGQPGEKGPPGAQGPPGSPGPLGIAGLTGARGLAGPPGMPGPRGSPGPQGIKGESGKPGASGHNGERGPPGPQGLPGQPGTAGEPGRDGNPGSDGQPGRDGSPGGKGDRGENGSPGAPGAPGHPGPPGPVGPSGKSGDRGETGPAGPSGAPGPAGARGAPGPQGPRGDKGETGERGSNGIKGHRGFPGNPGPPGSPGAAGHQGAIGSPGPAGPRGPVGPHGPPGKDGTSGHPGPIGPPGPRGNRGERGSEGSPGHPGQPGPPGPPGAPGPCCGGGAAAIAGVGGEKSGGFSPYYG

[3] = target: T2, COL1 fibres (Mus musculus, UniProt P11087+Q01149); experiment: Tissue co-localisation of fluorescent probe with COL1 fibres; design: species or system mice; conditions: aortic tissue, murine model of vascular remodelling
T2 construct: from tissue; host or cells: sections of the remodelled aortic wall of ApoE-/- mice
Source text: (§1) The monomeric molecular probes ending with a N-terminus free DOTAMA chelator and with a C-terminus free carboxylic group were custom synthesised by Peptide Synthetics Ltd (Hampshire, United Kingdom) with a purity of >95%. The DOTAMA collagen-binding peptides were complexed in house with Gd(III) to obtain a contrast agent for MR molecular imaging, or with Eu(III) for in vitro binding studies using Time-Resolved Fluorescence (TRF) plate assays, or ^68Ga(III) for PET biodistribution studies. Metal complexation of the DOTAMA derivatives was performed in-house, by reacting the desired lanthanide ion (Gd^3+, Eu^3+) in a 1.05:1 L:M molar ratio at pH 5.5 and room temperature. Reaction evolution was confirmed by xylenol orange method. Upon reaction competition, the pH was adjusted to 7 and the samples were lyophilised and stored at −20 °C. The final concentration of the Gd(III) and Eu(III) complex solutions was assessed by ICP-OES and/or BMS. For tissue co-localisation experiments, the CBP1 was also synthesised in the fluorescently labelled form by conjugating a Rhodamine B derivative to its N-terminus (compound Rh-CBP1).

[4] = target: T3, COL3-rich fibres (Mus musculus, UniProt P08121); experiment: Tissue co-localisation of fluorescent probe with COL3 fibres; design: species or system mice; conditions: murine model of vascular remodelling
T3 construct: Signal enhancement seen on the MRI coincided with COL3 fibres detected by histology; from tissue; host or cells: remodelled abdominal aortic wall of male ApoE-/- mice, in vivo and in excised sections
T3 sequence (P08121 155-1219 limits assumed): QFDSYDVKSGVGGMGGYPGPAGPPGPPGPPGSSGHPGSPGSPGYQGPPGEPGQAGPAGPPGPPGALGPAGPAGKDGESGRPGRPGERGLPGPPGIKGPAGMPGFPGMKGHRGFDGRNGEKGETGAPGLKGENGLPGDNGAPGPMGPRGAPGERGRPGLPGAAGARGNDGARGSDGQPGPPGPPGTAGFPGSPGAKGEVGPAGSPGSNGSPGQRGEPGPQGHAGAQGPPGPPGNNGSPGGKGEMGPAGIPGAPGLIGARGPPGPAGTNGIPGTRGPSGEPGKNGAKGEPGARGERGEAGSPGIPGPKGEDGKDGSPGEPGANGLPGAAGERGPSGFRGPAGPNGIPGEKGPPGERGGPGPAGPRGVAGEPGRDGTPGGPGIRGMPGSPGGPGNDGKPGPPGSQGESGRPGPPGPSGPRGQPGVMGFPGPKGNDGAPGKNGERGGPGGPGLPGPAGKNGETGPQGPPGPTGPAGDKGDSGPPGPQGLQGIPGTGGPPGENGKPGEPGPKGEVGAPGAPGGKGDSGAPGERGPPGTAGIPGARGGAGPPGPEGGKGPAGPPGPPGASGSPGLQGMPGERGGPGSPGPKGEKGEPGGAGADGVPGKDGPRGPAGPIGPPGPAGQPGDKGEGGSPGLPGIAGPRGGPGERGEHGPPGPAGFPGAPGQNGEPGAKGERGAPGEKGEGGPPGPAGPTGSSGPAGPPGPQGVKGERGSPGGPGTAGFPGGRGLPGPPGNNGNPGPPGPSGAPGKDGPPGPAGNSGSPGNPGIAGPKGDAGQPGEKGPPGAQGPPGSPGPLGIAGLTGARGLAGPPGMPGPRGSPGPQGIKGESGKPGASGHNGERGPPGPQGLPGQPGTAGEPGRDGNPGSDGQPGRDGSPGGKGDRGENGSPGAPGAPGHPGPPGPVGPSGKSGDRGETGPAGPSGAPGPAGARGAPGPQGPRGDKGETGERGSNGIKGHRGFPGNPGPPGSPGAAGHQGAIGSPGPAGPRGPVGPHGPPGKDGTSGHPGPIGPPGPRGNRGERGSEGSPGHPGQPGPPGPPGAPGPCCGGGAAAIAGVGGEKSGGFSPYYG
Source text: as §1

[5] = target: T4, Collagen type III (COL3) (Homo sapiens, UniProt P02461); experiment: competition Eu(III) time-resolved fluorescence assay
T4 chain: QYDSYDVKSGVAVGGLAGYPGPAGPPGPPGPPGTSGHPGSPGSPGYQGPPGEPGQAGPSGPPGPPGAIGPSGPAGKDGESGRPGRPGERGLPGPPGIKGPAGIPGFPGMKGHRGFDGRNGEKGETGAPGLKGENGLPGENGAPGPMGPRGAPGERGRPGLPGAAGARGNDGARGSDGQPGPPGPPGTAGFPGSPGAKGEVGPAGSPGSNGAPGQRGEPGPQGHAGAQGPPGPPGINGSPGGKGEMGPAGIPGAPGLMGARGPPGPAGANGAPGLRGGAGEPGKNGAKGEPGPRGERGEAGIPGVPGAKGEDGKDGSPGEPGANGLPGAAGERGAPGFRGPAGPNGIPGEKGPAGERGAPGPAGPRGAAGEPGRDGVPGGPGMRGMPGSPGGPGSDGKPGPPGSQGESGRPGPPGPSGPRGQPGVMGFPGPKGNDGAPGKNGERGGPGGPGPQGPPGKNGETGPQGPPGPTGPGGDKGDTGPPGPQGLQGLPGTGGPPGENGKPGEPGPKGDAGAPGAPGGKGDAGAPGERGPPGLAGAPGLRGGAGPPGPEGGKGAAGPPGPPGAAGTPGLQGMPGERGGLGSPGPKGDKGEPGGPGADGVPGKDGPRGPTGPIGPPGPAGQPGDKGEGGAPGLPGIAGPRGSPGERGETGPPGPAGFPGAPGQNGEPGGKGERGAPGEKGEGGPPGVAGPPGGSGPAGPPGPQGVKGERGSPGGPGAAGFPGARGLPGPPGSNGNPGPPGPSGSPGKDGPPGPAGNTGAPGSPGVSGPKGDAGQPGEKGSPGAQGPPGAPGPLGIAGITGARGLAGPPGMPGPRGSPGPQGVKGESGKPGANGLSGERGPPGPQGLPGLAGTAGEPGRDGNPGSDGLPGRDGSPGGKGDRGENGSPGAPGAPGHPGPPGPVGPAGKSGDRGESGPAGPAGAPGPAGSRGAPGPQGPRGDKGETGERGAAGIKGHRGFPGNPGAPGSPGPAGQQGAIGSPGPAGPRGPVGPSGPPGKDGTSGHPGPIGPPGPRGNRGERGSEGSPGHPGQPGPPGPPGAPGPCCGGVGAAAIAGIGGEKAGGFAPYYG

T2 sequence (P11087 152-1207 limits assumed): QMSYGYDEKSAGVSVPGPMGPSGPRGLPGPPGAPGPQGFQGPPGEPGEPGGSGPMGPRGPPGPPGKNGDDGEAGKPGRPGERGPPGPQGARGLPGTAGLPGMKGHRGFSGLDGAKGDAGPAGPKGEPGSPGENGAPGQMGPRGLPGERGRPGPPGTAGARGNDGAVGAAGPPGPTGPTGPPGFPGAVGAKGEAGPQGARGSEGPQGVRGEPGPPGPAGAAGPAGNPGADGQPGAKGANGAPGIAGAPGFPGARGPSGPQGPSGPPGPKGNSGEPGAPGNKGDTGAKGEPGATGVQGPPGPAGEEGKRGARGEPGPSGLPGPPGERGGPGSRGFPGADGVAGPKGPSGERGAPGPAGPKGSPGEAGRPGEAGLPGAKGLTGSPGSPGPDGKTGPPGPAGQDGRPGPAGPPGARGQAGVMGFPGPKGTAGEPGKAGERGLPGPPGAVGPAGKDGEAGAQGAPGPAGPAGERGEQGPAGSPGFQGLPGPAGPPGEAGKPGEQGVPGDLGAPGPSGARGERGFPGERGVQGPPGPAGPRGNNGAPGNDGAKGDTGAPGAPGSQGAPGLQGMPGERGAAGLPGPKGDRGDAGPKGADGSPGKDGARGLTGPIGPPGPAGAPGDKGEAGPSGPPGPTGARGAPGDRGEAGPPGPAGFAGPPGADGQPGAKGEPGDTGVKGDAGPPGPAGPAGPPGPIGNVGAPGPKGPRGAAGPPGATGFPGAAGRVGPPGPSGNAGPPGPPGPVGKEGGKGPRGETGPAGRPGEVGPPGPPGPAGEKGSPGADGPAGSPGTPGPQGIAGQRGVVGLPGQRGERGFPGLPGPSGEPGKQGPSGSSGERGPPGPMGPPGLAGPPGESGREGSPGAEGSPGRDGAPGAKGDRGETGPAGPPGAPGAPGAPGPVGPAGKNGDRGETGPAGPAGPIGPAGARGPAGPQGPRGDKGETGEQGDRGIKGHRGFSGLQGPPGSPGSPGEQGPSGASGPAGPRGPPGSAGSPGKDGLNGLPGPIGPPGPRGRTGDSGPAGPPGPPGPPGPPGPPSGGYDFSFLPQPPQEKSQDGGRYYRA
T2 sequence (Q01149 86-1125 limits assumed): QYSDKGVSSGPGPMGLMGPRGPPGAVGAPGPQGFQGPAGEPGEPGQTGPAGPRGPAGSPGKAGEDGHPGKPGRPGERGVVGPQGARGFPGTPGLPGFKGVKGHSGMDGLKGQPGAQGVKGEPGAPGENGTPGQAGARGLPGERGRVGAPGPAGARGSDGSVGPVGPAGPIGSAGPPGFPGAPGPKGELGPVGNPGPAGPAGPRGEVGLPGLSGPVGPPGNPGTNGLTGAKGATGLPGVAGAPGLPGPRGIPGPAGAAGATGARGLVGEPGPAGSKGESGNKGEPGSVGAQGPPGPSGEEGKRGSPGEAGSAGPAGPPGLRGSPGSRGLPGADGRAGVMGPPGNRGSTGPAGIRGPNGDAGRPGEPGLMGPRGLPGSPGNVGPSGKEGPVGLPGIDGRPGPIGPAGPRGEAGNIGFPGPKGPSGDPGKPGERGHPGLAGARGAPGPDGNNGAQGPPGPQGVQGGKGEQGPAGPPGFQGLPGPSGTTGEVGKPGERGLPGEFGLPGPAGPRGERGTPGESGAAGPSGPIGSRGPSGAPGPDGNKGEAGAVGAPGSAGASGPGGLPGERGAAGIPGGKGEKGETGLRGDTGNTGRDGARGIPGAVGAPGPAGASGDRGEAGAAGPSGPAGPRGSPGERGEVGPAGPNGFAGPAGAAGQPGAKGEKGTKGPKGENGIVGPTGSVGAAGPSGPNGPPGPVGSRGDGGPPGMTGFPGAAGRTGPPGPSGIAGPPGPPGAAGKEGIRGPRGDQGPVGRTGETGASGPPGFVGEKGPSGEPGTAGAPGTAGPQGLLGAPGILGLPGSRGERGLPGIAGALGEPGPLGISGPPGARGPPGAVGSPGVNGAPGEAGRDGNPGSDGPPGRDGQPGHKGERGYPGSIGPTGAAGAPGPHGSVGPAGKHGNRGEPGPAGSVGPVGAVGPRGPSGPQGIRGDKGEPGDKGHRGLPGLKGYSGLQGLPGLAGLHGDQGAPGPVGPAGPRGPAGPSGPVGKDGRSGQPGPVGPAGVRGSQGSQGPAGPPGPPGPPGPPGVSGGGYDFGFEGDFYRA

O=C([O-])CN1CCN(CC(=O)[O-])CCN([C@H](CO)[C@H](O)CO)CCN(CC(=O)[O-])CC1.[Gd+3] (racemic) [Gadovist]
r1 in PBS ([1]; column PBS): 3.7 mM⁻¹ s⁻¹
r1 (column HSA 0.6 mM) ([1]; in non-sterile bovine plasma (albumin 0.64 to 0.82 mmol/L)): 6.1* mM^−1 s^−1
signal enhancement in the infarct, both timepoints after MI (in words) [2]: No enhancement

DARKSEVQK [rhodamine-labelled CBP1 analogue probe, CBP1 in fluorescently labelled form, Rhodamine B derivative conjugated to its N-terminus]
co-localisation to COL1 fibres (in words) [3]: no co-localisation
co-localisation with COL3-rich fibres within the remodelled aortic wall (in words) [4]: co-localisation of the fluorescent probe with COL3-rich fibres

B1: [Gd-DOTAMA]4-CBP1 (peptide)
chain: Ac-C((Gd-DOTAMA)4 tri‑lysine scaffold)DARKSEVQK
modifications: not fully specified
IC50 [5]: 200 µM
